# Source: patent US20160279187A1, “CALPAIN INHIBITORS FOR IBD AND COLORECTAL CANCER TREATMENT” (UNIVERSITY OF HAWAII, priority 2013, published 2016)
# Where a SMILES comes first, the peptide text is derived from it. The star is where a group is joined. Cbz = O=C(OCc1ccccc1)*; CH2F = FC*
# Legend:
# [1] = target: T1, m-calpain (Homo sapiens, UniProt P17655); experiment: irreversible inhibition of m-calpain, k2 rate constant; assay type: biochemical; conditions: m-calpain / cathespin L, 28,900/680,000
# T1 sequence (P17655 1-700): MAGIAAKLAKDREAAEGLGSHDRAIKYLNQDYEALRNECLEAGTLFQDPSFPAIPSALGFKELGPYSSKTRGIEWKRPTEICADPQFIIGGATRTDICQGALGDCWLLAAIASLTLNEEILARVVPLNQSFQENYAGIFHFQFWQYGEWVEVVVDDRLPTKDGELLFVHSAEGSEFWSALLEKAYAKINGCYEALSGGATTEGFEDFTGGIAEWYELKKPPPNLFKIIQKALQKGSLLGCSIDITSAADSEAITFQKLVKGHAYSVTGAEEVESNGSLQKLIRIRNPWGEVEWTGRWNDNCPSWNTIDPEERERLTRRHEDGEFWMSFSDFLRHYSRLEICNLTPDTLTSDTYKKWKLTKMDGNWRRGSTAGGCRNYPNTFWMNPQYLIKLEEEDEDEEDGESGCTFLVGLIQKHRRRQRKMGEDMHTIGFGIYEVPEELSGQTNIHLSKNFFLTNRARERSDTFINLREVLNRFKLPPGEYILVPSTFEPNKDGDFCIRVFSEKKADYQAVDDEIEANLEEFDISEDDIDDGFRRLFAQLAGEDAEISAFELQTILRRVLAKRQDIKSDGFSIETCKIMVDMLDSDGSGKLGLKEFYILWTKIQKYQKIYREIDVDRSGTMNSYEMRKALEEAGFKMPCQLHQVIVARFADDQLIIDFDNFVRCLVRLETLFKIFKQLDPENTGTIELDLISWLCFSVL
# T1 sequence (P04632 1-268 partner): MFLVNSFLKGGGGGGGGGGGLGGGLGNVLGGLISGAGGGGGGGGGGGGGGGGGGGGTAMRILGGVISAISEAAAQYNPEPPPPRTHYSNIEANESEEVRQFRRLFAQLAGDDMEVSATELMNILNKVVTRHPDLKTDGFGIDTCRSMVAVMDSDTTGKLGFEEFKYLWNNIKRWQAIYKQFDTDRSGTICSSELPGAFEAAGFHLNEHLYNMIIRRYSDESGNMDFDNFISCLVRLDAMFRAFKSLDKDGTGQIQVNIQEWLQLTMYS
# Text: In some aspects, the m-calpain selective inhibitor can be an irreversible inhibitor of m-calpain. The inhibition is made […] by the nucleophilic attack of the active cysteine in m-calpain to the electrophilic moeity of the m-calpain selective inhibitor to form a covalent bond (Moldoveanu, T.; Campbell, R. L.; Cuerrier, D.; Davies, P. L. J. Mol. Biol., 343, 1313-1326, 2004; Carragher, N. O., Curr. Pharm. Des., 12, 615-638, 2006). […] However, ZZ-LLY-CH2F can inhibit the off-target protein cathespin L with a rate constant k2 of 680,000 M^−1s^−1 (Li, Q.; Hanzlik, R. P.; Weaver, R. F.; Schoenbrunn, E., Biochemistry, 45:701-708, 2006). Thus, the ratio of inhibition rates k2 of the on-target m-calpain to an off-target protein can be around 28,900/680,000, or about 0.041. The ratio of inhibition rates k2 of the on-target m-calpain to an off-target protein can be greater than about 0.5, or greater than 0.1, or greater than 0.05, or greater than 0.01.
# [2] = system: calpain activity in the colon tissue; experiment: DSS dose-response, calpain activity in colon tissue; assay type: in vivo, mice; conditions: 2% DSS 4 days
# Protocol: Bone marrow derived macrophages (BMDM) were prepared as previously described by methods known to those skilled in the art. On day 5 of culture, 2×10^6 BMDM were seeded in 6-well plates and the following day were primed for 18 h with TNFα (20 ng/mL), followed by 1 h stimulation with E. faecalis (1 μg/mL; ATCC). Stimulation with E. faecalis was conducted in the presence of the zLLY-CH2F calpain-2 inhibitor (20 μg/mL) or DMSO as a control. Media was removed from treated BMDM, centrifuged at 300×g for 5 min and supernatent analyzed using the Cytometric Bead Array Mouse Inflammation Kit (BD Biosciences, San Jose, Calif.). Cytokine data were analyzed using Flowjo software (Ashland, Oreg.) and GraphPad Prism version 4.0 (GraphPad, La Jolla, Calif.). Cell pellets were lysed and analyzed for IκB and NFκB by Western blot as previously described (Miyazaki, T. et al. Journal of Atherosclerosis and Thrombosis 20, 228-237, 2013). […] Each day 4 wells were quantified using Celltiter MTS reagent (Promega) and the resulting signal was used to generate a proliferation curve. Calpain activity was measured using a Calpain activity assay kit (BioVision, Inc., Milpitas, Calif.) as previously described. Colons were harvested on day 4 and calpain activity measured. […]
# [3] = system: IκB / NFκB in CT-26 WT cells; experiment: IκB and nuclear NFκB western blot, CT-26.WT; assay type: cell-based, mouse; conditions: vs DMSO
# [4] = target: T1, m-calpain; conditions: on-target; cited from earlier work
compound,measurement,setting,value
"CC(C)C[C@H](NC(=O)OCc1ccccc1)C(=O)N[C@@H](CC(C)C)C(=O)N[C@@H](Cc1ccc(O)cc1)C(=O)CF [zLLY-CH2F, Z-LLY-CH2F] (Cbz-Leu-Leu-Tyr-CH2F)",ratio of inhibition rates k2 of on-target m-calpain to off-target protein,[1],about 0.041
same,total calpain activity reduced by,"[2]; daily i.p. injection, 0.75 mg/kg",50%
same,dose at which the maximum amount of calpain activity inhibition was achieved,"[2]; i.p., 0-1.25 mg/kg tested",0.75 mg/kg
same,IκB degradation,[3],reduced
same,NFκB nuclear localization,[3],reduced
same,"k2 rate constant, irreversible inhibition of m-calpain",[4],"about 28,900 M-1 s-1"
